Data reported in PubChem BioAssay (NCI).
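These data come from cells grown in 96-well plates and exposed to compound for 48 hours at five concentrations. The concentration for full growth arrest is given as TGI.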

Columns and labels:
Assay in all cases: DTP human tumour cell line panel, 48 h
MDA-N = test system: MDA-N
RXF 393 renal = test system: RXF 393 renal
NCI-H23 lung = test system: NCI-H23 lung
HL-60(TB) leukemia = test system: HL-60(TB) leukemia
OVCAR-3 ovarian = test system: OVCAR-3 ovarian
RPMI-8226 leukemia = test system: RPMI-8226 leukemia
COLO 205 colon = test system: COLO 205 colon
SK-MEL-5 melanoma = test system: SK-MEL-5 melanoma
CAKI-1 renal = test system: CAKI-1 renal
UO-31 renal = test system: UO-31 renal
M14 melanoma = test system: M14 melanoma
SNB-75 CNS = test system: SNB-75 CNS
MALME-3M melanoma = test system: MALME-3M melanoma
NCI-H522 lung = test system: NCI-H522 lung
SR leukemia = test system: SR leukemia
A549 NSCLC = test system: A549 NSCLC
OVCAR-4 ovarian = test system: OVCAR-4 ovarian
MDA-MB-231 breast = test system: MDA-MB-231 breast
SN12C renal = test system: SN12C renal
HCT-15 colon = test system: HCT-15 colon
T-47D breast = test system: T-47D breast
BT-549 breast = test system: BT-549 breast
A498 renal = test system: A498 renal
CCRF-CEM leukemia = test system: CCRF-CEM leukemia
HCT-116 colon = test system: HCT-116 colon
SK-MEL-2 melanoma = test system: SK-MEL-2 melanoma
786-0 renal = test system: 786-0 renal
NCI-H460 lung = test system: NCI-H460 lung
SNB-19 CNS = test system: SNB-19 CNS
SF-268 CNS = test system: SF-268 CNS
SF-539 CNS = test system: SF-539 CNS
HS 578T breast = test system: HS 578T breast
SK-MEL-28 melanoma = test system: SK-MEL-28 melanoma
PC-3 prostate = test system: PC-3 prostate
MCF7 breast = test system: MCF7 breast
HT29 colon = test system: HT29 colon
DU-145 prostate = test system: DU-145 prostate
MDA-MB-435 = test system: MDA-MB-435
LOX IMVI melanoma = test system: LOX IMVI melanoma
HOP-62 NSCLC = test system: HOP-62 NSCLC
SK-OV-3 ovarian = test system: SK-OV-3 ovarian
OVCAR-5 ovarian = test system: OVCAR-5 ovarian
HOP-92 NSCLC = test system: HOP-92 NSCLC
SF-295 CNS = test system: SF-295 CNS
HCC-2998 colon = test system: HCC-2998 colon
SW-620 colon = test system: SW-620 colon
TK-10 renal = test system: TK-10 renal
UACC-257 melanoma = test system: UACC-257 melanoma
OVCAR-8 ovarian = test system: OVCAR-8 ovarian
K-562 leukemia = test system: K-562 leukemia
IGROV1 ovarian = test system: IGROV1 ovarian
EKVX NSCLC = test system: EKVX NSCLC
U251 CNS = test system: U251 CNS
UACC-62 melanoma = test system: UACC-62 melanoma
NCI/ADR-RES ovarian = test system: NCI/ADR-RES ovarian
MOLT-4 leukemia = test system: MOLT-4 leukemia
KM12 colon = test system: KM12 colon
ACHN renal = test system: ACHN renal
NCI-H226 lung = test system: NCI-H226 lung
RXF-631 renal = test system: RXF-631 renal
HOP-18 NSCLC = test system: HOP-18 NSCLC
DMS 114 small cell lung = test system: DMS 114 small cell lung
DLD-1 colon = test system: DLD-1 colon
DMS 273 small cell lung = test system: DMS 273 small cell lung
LXFL 529 NSCLC = test system: LXFL 529 NSCLC
SNB-78 CNS = test system: SNB-78 CNS
KM20L2 colon = test system: KM20L2 colon
M19-MEL melanoma = test system: M19-MEL melanoma

O=[N+]([O-])/C(Cl)=C(/C(Cl)=C(Cl)Cl)N1CCOCC1
TGI (MDA-N): 6.77 µM
TGI (RXF 393 renal): 7.93 µM
TGI (NCI-H23 lung): 5.68 µM
TGI (HL-60(TB) leukemia): 5.23 µM
TGI (OVCAR-3 ovarian): 4.86 µM
TGI (RPMI-8226 leukemia): 6.58 µM
TGI (COLO 205 colon): 5.45 µM
TGI (SK-MEL-5 melanoma): 3.48 µM
TGI (CAKI-1 renal): 12.7 µM
TGI (UO-31 renal): 12.8 µM
TGI (M14 melanoma): 7.66 µM
TGI (SNB-75 CNS): 17.9 µM
TGI (MALME-3M melanoma): 3.07 µM
TGI (NCI-H522 lung): 4.73 µM
TGI (SR leukemia): 6.42 µM
TGI (A549 NSCLC): 15.6 µM
TGI (OVCAR-4 ovarian): 16.7 µM
TGI (MDA-MB-231 breast): 8.89 µM
TGI (SN12C renal): 20 µM
TGI (HCT-15 colon): 3.24 µM
TGI (T-47D breast): 9.36 µM
TGI (BT-549 breast): 8.86 µM
TGI (A498 renal): 7.79 µM
TGI (CCRF-CEM leukemia): 7.23 µM
TGI (HCT-116 colon): 7.51 µM
TGI (SK-MEL-2 melanoma): 11.6 µM
TGI (786-0 renal): 10 µM
TGI (NCI-H460 lung): 18.4 µM
TGI (SNB-19 CNS): 38.3 µM
TGI (SF-268 CNS): 24.4 µM
TGI (SF-539 CNS): 9.05 µM
TGI (HS 578T breast): 14.9 µM
TGI (SK-MEL-28 melanoma): 34.3 µM
TGI (PC-3 prostate): 19.3 µM
TGI (MCF7 breast): 8.25 µM
TGI (HT29 colon): 14.2 µM
TGI (DU-145 prostate): 26.9 µM
TGI (MDA-MB-435): 7.64 µM
TGI (LOX IMVI melanoma): 17.3 µM
TGI (HOP-62 NSCLC): 2.5 µM
TGI (SK-OV-3 ovarian): 27.3 µM
TGI (OVCAR-5 ovarian): 22 µM
TGI (HOP-92 NSCLC): 4.88 µM
TGI (SF-295 CNS): 25.8 µM
TGI (HCC-2998 colon): 7.52 µM
TGI (SW-620 colon): 11.7 µM
TGI (TK-10 renal): 13.6 µM
TGI (UACC-257 melanoma): 9.3 µM
TGI (OVCAR-8 ovarian): 11.9 µM
TGI (K-562 leukemia): 12.8 µM
TGI (IGROV1 ovarian): 3.88 µM
TGI (EKVX NSCLC): 21.6 µM
TGI (U251 CNS): 27 µM
TGI (UACC-62 melanoma): 5.62 µM
TGI (NCI/ADR-RES ovarian): 14.9 µM
TGI (MOLT-4 leukemia): 7.32 µM
TGI (KM12 colon): 13.1 µM
TGI (ACHN renal): 20.5 µM
TGI (NCI-H226 lung): 40.4 µM

Cc1cc(Cl)ccc1NC(=O)C1C(=O)N(c2ccc(Cl)cc2C)C(=O)/C1=N\NC(N)=S (stereo not drawn)
TGI (RXF-631 renal): > 100 µM
TGI (RXF 393 renal): 54.1 µM
TGI (NCI-H23 lung): 41.6 µM
TGI (HL-60(TB) leukemia): 51.8 µM
TGI (OVCAR-3 ovarian): > 100 µM
TGI (RPMI-8226 leukemia): > 100 µM
TGI (COLO 205 colon): > 100 µM
TGI (SK-MEL-5 melanoma): > 100 µM
TGI (UO-31 renal): 41.1 µM
TGI (M14 melanoma): > 100 µM
TGI (MALME-3M melanoma): 49.7 µM
TGI (NCI-H522 lung): 34.4 µM
TGI (A549 NSCLC): > 100 µM
TGI (OVCAR-4 ovarian): 69.7 µM
TGI (HOP-18 NSCLC): 60.8 µM
TGI (DMS 114 small cell lung): 98.7 µM
TGI (SN12C renal): 96.3 µM
TGI (HCT-15 colon): 34.4 µM
TGI (A498 renal): 72.4 µM
TGI (DLD-1 colon): > 100 µM
TGI (CCRF-CEM leukemia): 56.5 µM
TGI (HCT-116 colon): 46.2 µM
TGI (786-0 renal): > 100 µM
TGI (NCI-H460 lung): > 100 µM
TGI (SNB-19 CNS): > 100 µM
TGI (SF-268 CNS): > 100 µM
TGI (SF-539 CNS): 70.6 µM
TGI (DMS 273 small cell lung): > 100 µM
TGI (HT29 colon): 35.4 µM
TGI (LXFL 529 NSCLC): 98.5 µM
TGI (HOP-62 NSCLC): 48.5 µM
TGI (SNB-78 CNS): > 100 µM
TGI (OVCAR-5 ovarian): 53.9 µM
TGI (HOP-92 NSCLC): 46.6 µM
TGI (SF-295 CNS): 86.4 µM
TGI (HCC-2998 colon): 44.5 µM
TGI (SW-620 colon): > 100 µM
TGI (KM20L2 colon): 46.8 µM
TGI (TK-10 renal): > 100 µM
TGI (UACC-257 melanoma): > 100 µM
TGI (OVCAR-8 ovarian): > 100 µM
TGI (K-562 leukemia): 57.8 µM
TGI (EKVX NSCLC): 51.8 µM
TGI (U251 CNS): 39.6 µM
TGI (UACC-62 melanoma): 86.4 µM
TGI (MOLT-4 leukemia): 38 µM
TGI (KM12 colon): > 100 µM
TGI (ACHN renal): > 100 µM
TGI (M19-MEL melanoma): > 100 µM
